# Experimental data published in US20260226006A1, “INDOLE COMPOUND, PREPARATION METHOD THEREFOR AND USE THEREOF” (SUZHOU MERNA THERAPEUTICS CO. LTD, priority 2023, published 2026).
# Tested on: HaCat cells
# Test: m6A methylation level of drug-treated HaCat keratinocytes by nanopore sequencing (Example 14)
# Assay type: cell-based, human
# Details: 50 nM drug, 24 hours
# Procedure: 1*10^8 HaCat cells were seeded in culture dishes, into which 50 nM drugs (including sorafenib, capecitabine, docetaxel, and osimertinib) were added, respectively. The cells were cultured in an incubator containing 5% CO2 at 37° C. for 24 hours and washed with PBS after culture media were removed. Centrifugation was performed, the supernatant was discarded, and then, 400 μL of an RLT cell lysis buffer (QIAGEN, Cat. #79216) was added. A portion of samples were selected, into which 400 μL of 70% ethanol was added. The mixture was evenly stirred and then transferred to an RNeasy mini column, and RNA was extracted using an RNeasy mini kit (QIAGEN, Cat. #74104). 2 μL of an RNA sample was selected and dissolved in 98 μL of a 10 mM Tris-HCl buffer solution, and the absorbance at 260 nm was measured using a Nanodrop (Thermo Fisher Scientific) to determine the RNA concentration.
# 40 μg of an RNA sample was selected for enrichment of mRNA (PolyA+RNA) using an NEBNext Poly(A) mRNA magnetic isolation module (NEB, Cat. #E7490), and then, a 3′ end of the above enriched mRNA (PolyA+RNA) molecule was ligated with reverse transcription adapter RTA using a direct RNA sequencing kit (Oxford Nanopore Technologies, Cat. #SQK-RNA002). A reverse transcription reaction was performed with the mRNA (PolyA+RNA) molecule as a template to synthesize a complementary strand, a terminal end of the reverse transcription adapter RTA was ligated with a sequencing adapter (RNA adapter) to form a final sequencing library, and quantitative detection was performed using a Qubit™ dsDNA HS assay kit (Invitrogen, Cat. #LOT2133187).
# After quality inspection of the library, the prepared sequencing library was loaded onto a PromethION flow cell chip (Oxford Nanopore Technologies, Cat. #FLO-MIN106D), and placed in a PromethION sequencer (Oxford Nanopore Technologies) for sequencing by selecting a matched sequencing mode. Basecalling was performed on sequencing data through guppy, and m6A methylation analysis was performed on original fast5 data.
row,Compound,"m6A methylation level of HaCat cells, increase compared with blank control group [times]"
1,"C=CC(=O)Nc1cc(Nc2nccc(-c3cn(C)c4ccccc34)n2)c(OC)cc1N(C)CCN(C)C [Osimertinib, osimertinib, reference compound]",5.13
2,"CNC(=O)c1cc(Oc2ccc(NC(=O)Nc3ccc(Cl)c(C(F)(F)F)c3)cc2)ccn1 [Sorafenib, sorafenib, reference compound]",5.05

# Tested on: HaCaT keratinocytes
# Test: Inhibition of HBEGF-induced differentiation of HaCaT keratinocytes, marker mRNA by RT-PCR (Example 21)
# Assay type: cell-based, human
# Details: 2.5 ng/mL human recombinant HBEGF protein + test compound, 24 hours
# Procedure: Human HaCaT keratinocytes were cultured in a DMEM culture medium containing 10% fetal bovine serum, 100 U/mL penicillin, and 100 µg/mL streptomycin. The cells were seeded into a 96-well plate at a density of […] and placed in an incubator containing 5% carbon dioxide for culture at 37° C. for 24 hours. An equal volume of DMSO was added into control well 1, a 2.5 ng/mL human recombinant HBEGF protein (Abcam, ab205523) was added into control well 2, and a 2.5 ng/mL human recombinant HBEGF protein and corresponding concentrations of test compounds were added into sample wells. The cells were continuously cultured for 24 hours, washed with PBS, and then collected by high-speed centrifugation. Total RNA was extracted using a Trizol reagent (Sigma Aldrich). 1 μg of RNA was reverse-transcribed into cDNA using a cDNA reverse transcription kit (Transgene Biotech, AT311-03). 1.25 μL of a primer (with a primer sequence shown in Table 2), 10 μL of an iTag Universal SYBR Green supermix (Bio-Rad, 172-S125), and an appropriate amount of DEPC ultrapure water were added to formulate 20 μL of a reaction solution to perform an RT-PCR reaction. Upon completion of the reaction, the reaction solution was subjected to agarose gel electrophoresis to determine the mRNA expression amounts of keratinocyte differentiation markers KRT1, KRT10, Loricrin, and Involucrin.
row,Compound,"mRNA expression amounts of HaCaT differentiation markers KRT1, KRT10, Loricrin, and Involucrin"
1,"NC(=O)C1CCCc2c1[nH]c1ccc(Cl)cc21 (stereo not drawn) [Compound 2, 6-chloro-2,3,4,9-tetrahydro-1H-carbazole-1-carboxamide]",significantly inhibited
2,"NC(=O)[C@H]1CCCc2c1[nH]c1ccc(Cl)cc21 [Compound 2b, (S)-6-chloro-2,3,4,9-tetrahydro-1H-carbazole-1-carboxamide]",significantly inhibited
3,"NC(=O)C1c2[nH]c3ccc(Cl)cc3c2C2CCC1C2 [Compound 5a, (S)-2-chloro-5,6,7,8,9,10-hexahydro-7,10-methanocyclohepta[b]indole-6-carboxamide]",significantly inhibited
4,"CN1CC[C@H](C(N)=O)c2[nH]c3ccc(Cl)cc3c21 [Compound 8b, (S)-8-chloro-1-methyl-2,3,4,5-tetrahydropyrido[3,2-b]indole-4-carboxamide]",significantly inhibited
